Laboratory results from patent publication US20180206489A1, “REPELLENT EFFECTIVE AGAINST ANOPHELES GAMBIAE” (Simon Fraser University, priority 2014, published 2018).
Entries after “also recorded” stand apart in the source; their conditions may differ.

Columns and labels:
Aedes aegypti = settings: cited from earlier work
[1] = system: neurons in the sacculus on the antenna that express an ionotropic receptor (IR40a); settings: cited from earlier work
Anopheles gambiae [2] = test: Behavioural olfactometer assay with human odor source protected by chemical and alternate plant (honey) odor source; format: in vivo; settings: for repelling efficacy, DEET vs 3c{3,6}: 0.1% solution; for total experiment time (time in the proximity of the human odor source) vs unprotected control / probe time (time on the human odor source) vs unprotected control / number of probe attempts at the human odor source vs unprotected control: 1% chemical on mesh over human odor, P<0.05; for total experiment time (time in the proximity of the human odor source) vs unprotected control: FIG. 5A; for probe time (time on the human odor source) vs unprotected control: FIG. 5B; for number of probe attempts at the human odor source vs unprotected control: FIG. 5C
Method: The olfactometer procedure and materials used in this study are similar to those employed by Zappia and Roitberg (2012) Energy-state dependent responses of Anopheles gambiae (Diptera: Culicidae) to simulated bednet-protected hosts. J. Vector Ecol. 37 (1): 173-8, herein incorporated by reference in its entirety. The behavioral assay was conducted in a custom-made glass olfactometer tube (145 cm long, 17 cm diameter) (FIG. 2). A mosquito release chamber was located on one side of the tube and consisted of a small tube with a gate attached separating the mosquito from the experiment arena. A small sac (10 cm×3 cm in diameter) made of mesh (Onsight equipment insecticide free hiker's mosquito shelter) was positioned 60 cm from the end of the release chamber. The mesh sac was immersed in the treatment compound immediately before trials and allowed to dry before the trial began. The sac contained human odor in the form of a sock (Secret brand, nylon) conditioned through 30 minutes of strenuous exercise and incubated at 28° C. and 80% RH for 24 hours before use. This sock was tested to ensure it was attractive to mosquitoes at the beginning of each trial day (by placing it in a non-experimental colony cage and observing whether females in the cage would seek it out to probe at it) and replaced every 5 days. A breathing tube was also attached to the human odor/chemical complex that allowed a one-way flow of exhaled carbon dioxide into the arena through the sock to make the human odor more attractive to A. gambiae. Carbon dioxide was exhaled into this tube once every 15 seconds during trials. An odor-producing sugar source was located 73 cm from the human odor/chemical complex. This consisted of a cotton ball impregnated with approximately 5 g of honey (Kidd Bros, Alfalfa Clover). The ball was suspended on a metal stage from the top of the olfactometer tube. This gave the mosquito an alternative during trials from seeking the human odor source. At the opposite end of the tube from the release gate was an air source pumping a one-way source of carbon-filtered air into the olfactometer arena flowing from the sugar source to the human odor to the release gate at a rate of 0.025 L/s. The olfactometer was rinsed daily with acetone and water to minimize residual odors. A 2×5 factorial design was used with solvent type and chemical as factors. The solvent types tested were a 1:1 and 1:5 ratio of isopropyl alcohol to water. Two different solvent types were assessed to determine the lowest ratio of alcohol to water that would be effective, since a lower concentration of alcohol is both more cost effective and practical in the field. […] In addition, we tested DEET™ as a positive control compound. Two concentrations of DEET™ and 3c{3,6} (0.1% and 1%) and a control were assessed for each solvent consisting of the solvent without the active ingredient (0% concentration). Female A. gambiae (4-7 days old, not previously blood-fed, and without a visibly swollen abdomen, wing size 2.93 mm-3.49 mm) were starved for 24 hours before assays. All assays were run under dim red light (1.79 μmol photons/(s×m^2)) in the colony chamber 1-5 hours after darkness since this is the period in which blood-seeking behaviour in females is highest. Mosquitoes were allowed to acclimate in the release chamber for 3 minutes before trials began. After 3 minutes, the release gate was opened. […] When the mosquito entered the arena, timing began. During trials, the olfactometer design was such that the mosquito encountered the human odor/chemical first, followed by the sugar odor source. The experiment arena consisted of the area in the olfactometer that was placed in front of the plant odor source, relative to the release point of the mosquito. Trials ended when the mosquito landed anywhere in the arena and rested for 5 minutes or flew to the plant sugar source. […]

Culex quinquefasciatus = settings: cited from earlier work
[3] = system: olfactory receptor neurons on the maxillary palps of A. gambiae; settings: cited from earlier work
Anopheles gambiae [4] = test: Electroantennogram (EAG) screening assay on female antennae
Method: EAG recordings were obtained using a Combi Probe (Syntech, Kirchzarten, Germany) fitted with glass capillary Ag/AgCl electrodes, filled with insect Ringer solution. Fine, tapered capillaries were prepared on a Gravipull-2 capillary puller (Kation Scientific, Minneapolis, USA). Data were recorded with an IDAC-4 data acquisition system (Syntech), interfaced with a computer that had the software EAGpro (version 1.1, Syntech). Stimuli were dissolved in hexane […] and applied to small filter papers (Whatman No. 1) (10 μL). This gave doses on the filter paper of 1 μg, 10 μg and 100 μg. After evaporation of the solvent, the filter papers were placed in a Pasteur pipette. Pipettes were attached to a CS-55 stimulus controller ([…]) that delivered a pulse of air (30 mL/s) through the pipette and into a metal stimulus delivery tube (Ø 0.95 cm×18 cm) that dispensed a continuous airflow (25 mL/s) and was positioned approximately 2 cm from the mosquito antenna so that the airflow contacted the entire antenna. The duration of the pulse was 0.7 s. Screening took place on A. gambiae females 4-7 days post-eclosion. Females were starved (sugar water replaced with distilled water in the colony cage) for 24 hours before trials to ensure a standard hunger level in test subjects. Mosquitoes were prepared for trials in this manner: the head of the mosquito was excised and the base of the head was connected to the ground electrode. The tip of the distal segment of one antenna was cut and inserted it into the recording electrode. Only mosquitoes producing a steady baseline reading were used for trials. All readings were taken within 10 minutes of the time the mosquito was prepared and each female was tested only once with one full chemical series. Trials included human scent emanating from a sock (Tradition brand, nylon) previously conditioned through 30 minutes of vigorous exercise by a volunteer and incubated at 28° C. and 80% RH for 24 hours. […] For trials, the sock was cut into 0.5 cm×3 cm strips and put into the pipette dispensing the odor pulses. Odors in each run were presented to the mosquito in the following order with at least 25 seconds between odor pulses: no odor, no odor, 10 μg DEETTM, 10 μg chemical, no odor, no odor, human scent only, human scent with 1 μg chemical, human scent with 10 μg chemical, human scent with 100 μg chemical, human scent only, no odor, no odor, 10 μg DEETTM. Several of these pulses served as internal controls to ensure that the mosquito antenna was still responding to the stimuli, or the human odor was detectable to the mosquito. One of the pulses, such as air pulse, produced a response, but it is smaller than that of odor or of presented compounds, seven […]. The DEETTM pulses were included as a reference. The pulses of interest were those containing both the human odor and chemical of interest in various concentrations. 9 runs were completed for each chemical tested and recorded the amplitude of the peaks produced for each odor pulse. […] All data were analyzed in R version 2.15.0 (R Development Core Team, 2012). […] EAG activity values were analyzed using a generalized least squares ANOVA with a variance structure that accounts for measurements within runs being more similar than measurements between runs. […] Behavioural assay data was analyzed using a MANOVA with solvent type and chemical (including concentration) as factors. […]

**Q.** Which “direct detection of DEET” value (Aedes aegypti) does the source give for CCN(CC)C(=O)c1cccc(C)c1 [DEET™, N—N-diethyl-meta-toluamide] here?
**A.** The value was “detect DEET™ directly”.

**Q.** What about the “inhibition of neuron response to 1-octen-3-ol” value (Aedes aegypti) of the same molecule?
**A.** The value was “this inhibition was not detected”.

**Q.** And the “stimulation of IR40a-expressing sacculus neurons” value [1]?
**A.** Its value is “stimulate neurons in the sacculus on the antenna of Drosophila melanogaster”.

**Q.** And the “repelling efficacy, DEET vs 3c{3,6}” value (Anopheles gambiae [2])?
**A.** Its value is “more effective at repelling A. gambiae individuals than a 0.1% solution of 3c{3,6}”.

**Q.** And the “total experiment time (time in the proximity of the human odor source) vs unprotected control” value (Anopheles gambiae [2])?
**A.** Its value is “spent less time in the proximity of the human odor source”.

**Q.** What about the “probe time (time on the human odor source) vs unprotected control” value (Anopheles gambiae [2]) of the same molecule?
**A.** Its value is “spent less time on the human odor source”.

**Q.** And the “number of probe attempts at the human odor source vs unprotected control” value (Anopheles gambiae [2])?
**A.** Its value is “attempted to probe less”.

**Q.** And the “direct detection of DEET” value (Culex quinquefasciatus)?
**A.** Its value is “detect DEET™ directly”.

**Q.** And the “inhibition of neuron response to 1-octen-3-ol” value (Culex quinquefasciatus)?
**A.** The value was “this inhibition was not detected”.

**Q.** And the “inhibition of olfactory receptor neurons (decreased response to 1-octen-3-ol)” value [3]?
**A.** Its value is “inhibits olfactory receptor neurons on the maxillary palps of A. gambiae”.

**Q.** What about the “enhancement or inhibition of antennal responses to human scent” value (Anopheles gambiae [4]; compound + human scent) of the same molecule?
**A.** Its value is “did not affect the responses to the human scent”.

**Q.** What about the “antennal (olfactory) response to compound by itself” value (Anopheles gambiae [4]; compound alone, EAG) of the same molecule?
**A.** Its value is “responded; also recorded: elicited olfactory responses by itself”.

**Q.** Which “repelling efficacy, DEET vs 3c{3,6}” value (Anopheles gambiae [2]) does the source give for C=CCOc1ccc(OCCC)cc1 [3c{3,6}, 1-allyloxy-4-propoxybenzene] here?
**A.** Its value is “a 0.1% solution of DEET™ was more effective”.

**Q.** And the “total experiment time (time in the proximity of the human odor source) vs unprotected control” value (Anopheles gambiae [2])?
**A.** The value was “spent less time in the proximity of the human odor source”.

**Q.** And the “probe time (time on the human odor source) vs unprotected control” value (Anopheles gambiae [2])?
**A.** The value was “spent less time on the human odor source”.

**Q.** What about the “number of probe attempts at the human odor source vs unprotected control” value (Anopheles gambiae [2]) of the same molecule?
**A.** The value was “attempted to probe less”.

**Q.** And the “behavioural response compared with DEET” value (Anopheles gambiae [2]; 1% solution)?
**A.** The value was “comparable response in mosquitoes to a 1% solution of DEET™”.

**Q.** And the “repellent efficacy against A. gambiae (overall conclusion)” value (Anopheles gambiae [2]; in vivo)?
**A.** The value was “effective repellent for A. gambiae; also recorded: effective repellent against A. gambiae”.

**Q.** What about the “depolarization response of compound by itself” value (Anopheles gambiae [4]; 100 μg dose, FIG. 6) of the same molecule?
**A.** The value was “one of the largest depolarization responses by itself”.

**Q.** And the “air-corrected antennal depolarization, chemical alone (without the human odor)” value (Anopheles gambiae [4]; FIG. 4, difference not significant (P>0.05))?
**A.** The value was “larger air-corrected antennal depolarization than the other compounds tested”.

**Q.** And the “EAG activity: response to repellent/human odor source combination compared to DEET reference peak” value (Anopheles gambiae [4]; human scent with 1 μg, 10 μg, 100 μg chemical (pooled), FIG. 3)?
**A.** Its value is “largest activity of all the compounds tested”.
